{"source": "patent US20250283049A1", "about": "“AGENT FOR CULTURING ORGANOID IN ABSENCE OF EXTRACELLULAR MATRIX” (KEIO UNIVERSITY, priority 2022, published 2025)", "type_in_all_cases": "cell-based", "key": {"[1]": {"test_system": "human small intestine-derived organoids", "assay": "Niche factor removal; continuous passaging P0 to P16 in absence of Matrigel", "details": "Lats-IN 10 μM", "procedure": "FIG. 15 is a graph showing the results of measuring the proliferation of human small intestine-derived organoids cultured in the absence of Matrigel (registered trademark), in the absence or presence of Lats-IN (final concentration: 10 μM), under conditions in which all WRENAIF niche factors were added, and under conditions in which some of these niche factors were removed. In FIG. 15, P0 to P16 indicate passage numbers 0 to 16. In addition, the dark colors in the graph indicate successful passaging, while the light colors indicate unsuccessful passaging."}, "[2]": {"test_system": "crypts isolated from human large intestine-derived tissue", "assay": "Organoid establishment from isolated crypts in absence of Matrigel; time-course ATP and passaging", "details": "Lats-IN 10 μM, without Lats-IN died after second passage", "procedure": "Crypts were isolated from human small intestine- and large intestine-derived tissues. The isolated crypts were cultured in the absence of Matrigel (registered trademark) and in the absence or presence of Lats-IN (final concentration: 10 μM).\nFIG. 10 is a graph showing the results of a time-course measurement of proliferation of the crypts isolated from the human large intestine-derived tissue over time. The cell proliferation was measured by measuring ATP using a commercially available kit (product name “CellTiter-Glo 3D,” Promega Corporation). The vertical axis of the graph represents luminescence intensity (relative value) indicating the amount of ATP present."}, "[3]": {"test_system": "stomach-derived organoids, biliary tract-derived organoids, and mammary gland-derived organoids", "assay": "Culture of organoids derived from various organs in absence of Matrigel", "details": "Lats-IN 10 μM", "procedure": "It was examined whether organoids derived from various organs could be cultured in the absence of Matrigel (registered trademark) and in the absence or presence of Lats-IN (final concentration: 10 μM).\nFIG. 11 presents representative photographs showing the results of culturing stomach-derived organoids, biliary tract-derived organoids, and mammary gland-derived organoids in the absence of Matrigel (registered trademark) and Lats-IN (Ctrl), or in the absence of Matrigel (registered trademark) and in the presence of Lats-IN (Lats-IN). The scale bar is 100 μm."}, "[4]": {"test_system": "phosphorylated YAP (Ser127)", "assay": "Examination of phosphorylation of YAP by Western blotting in human small intestine-derived organoids", "details": "10 μM; in both presence and absence of Matrigel; compared to when Lats-IN is absent", "procedure": "Human small intestine-derived organoids were cultured in the absence and presence of Matrigel (registered trademark) and in the absence and presence of a LATS kinase inhibitor (final concentration: 10 μM), and phosphorylation of YAP was confirmed by Western blotting.\nIn FIG. 4, “pYAP” indicates phosphorylated YAP, and “YAP” indicates total YAP (the sum of phosphorylated YAP and non-phosphorylated YAP). The antibody against phosphorylated YAP used was phospho-YAP (Ser127) (#4911, Cell Signaling Technology, Inc.). The antibody against total YAP used was total-YAP (#14074, Cell Signaling Technology, Inc.)."}, "AXIN2 gene": {"test_system": "AXIN2 gene", "assay": "AXIN2 gene expression by quantitative real-time PCR in human large intestine-derived organoids", "details": "absence of Matrigel; Lats-IN 10 μM", "procedure": "Human small intestine-derived organoids and human large intestine-derived organoids were cultured in the absence or presence of Matrigel (registered trademark) and in the absence or presence of Lats-IN (final concentration: 10 μM), and the expression level of the AXIN2 gene, whose expression is regulated by Wnt, was examined by quantitative real-time PCR.\nFIG. 16 presents graphs showing the results of quantitative real-time PCR."}, "[5]": {"test_system": "human large intestine-derived organoid", "assay": "Culture of organoids in absence of Matrigel with LATS kinase inhibitor; cell number by ATP (CellTiter-Glo 3D)", "procedure": "In this experimental example, a human small intestine-derived organoid and human large intestine-derived organoid established in the presence of Matrigel (registered trademark) were cultured in the absence of Matrigel (registered trademark) and in the presence of a LATS kinase inhibitor (final concentration: 10 μM), and their dynamics were observed. The procedure was the same as in Experimental Example 1, except that each organoid was cultured in the absence of Matrigel (registered trademark).\nThe lower left panel of FIG. 3 is a photograph of a control (Ctrl) human large intestine-derived organoid cultured in the absence of Lats-IN, and the lower center panel of FIG. 3 is a photograph of a human large intestine-derived organoid cultured in the presence of Lats-IN. The scale bar is 100 μm. The lower right panel of FIG. 3 is a graph showing the results of measuring cell number in the human large intestine-derived organoids cultured in the presence of the control (Ctrl) and Lats-IN. The vertical axis of the graph represents luminescence intensity (relative value) indicating the amount of ATP present. […]\nFIG. 8 presents graphs showing the results of measuring the proliferation of the human small intestine-derived and human large intestine-derived organoids in the absence of Lats-IN (Ctrl), in the presence of Lats-IN (Lats-IN), in the presence of Lats-IN and MYF01-37 (Lats-IN+MYF), and in the presence of MYF01-37 (MYF). The cell proliferation was measured by measuring ATP using a commercially available kit (product name “CellTiter-Glo 3D,” Promega Corporation). The vertical axis of the graph represents luminescence intensity (relative value) indicating the amount of ATP present. […]\nFIG. 26 presents graphs showing the results of measuring cell number in each organoid after 6 days of culture by measuring ATP using a commercially available kit (product name “CellTiter-Glo 3D,” Promega Corporation). The vertical axis of the graph represents luminescence intensity (relative value) indicating the amount of ATP present."}}, "data": [{"smiles": "O=C(N=c1sccn1Cc1ccccc1)c1c[nH]c2ncccc12", "note": "[Lats-IN]", "values": [{"measurement": "continuous passaging in medium lacking any of the WRENAIF niche factors", "setting": "[1]", "value": "continuous passaging was not possible"}, {"measurement": "passaging and proliferation of isolated crypts (organoid establishment)", "setting": "[2]", "value": "able to undergo passage almost continuously without cessation of cell proliferation"}, {"measurement": "cell proliferation (photographs)", "setting": "[3]", "value": "activated"}, {"measurement": "phosphorylation of YAP", "setting": "[4]", "value": "significantly suppressed"}, {"measurement": "expression level of AXIN2", "setting": "AXIN2 gene", "value": "increased to a level equivalent to that in the presence of Matrigel"}, {"measurement": "cell proliferation (ATP luminescence)", "setting": "[5]; Experimental Example 5, Lats-IN 10 μM alone", "value": "activated"}, {"measurement": "cell proliferation (cell number, ATP luminescence)", "setting": "[5]; final concentration 10 μM, 7 days of culture, vs control", "value": "significantly activated"}]}]}
